Data: patent US10253060B2, “Terpenoid derivatives” (Daiichi Sankyo Company, Limited, priority 2013, dated 2019)

Tests used:
[1] = tested on: ARPE-19 cells; experiment: Cytoprotective action: suppression of t-BHP-induced decrease in number of live ARPE-19 cells; assay type: cell-based, human; conditions: 300 μM t-BHP; for Number of live cells (percentage): no t-BHP/no compound = 100%, mean ± SD, 3 wells
Method: The peroxide tert-butyl hydroperoxide (t-BHP) is known to cause oxidative stress-dependent cell injury (Chem Biol Interact 2009; 181: 366- and Food Chem Toxicol 2011; 49: 2081-).
The test compound was terpenoid derivative B of the present invention obtained in Example 1 and CDDO-Me as Comparative Example.
(§1) ARPE-19 cells were cultured (5% CO2, 37° C.) using a DMEM/F12 (Life Technologies Japan Ltd., catalog No. 11330-032) mixed medium containing 10% inactivated FBS. The medium contained 100 units/mL (final concentration) penicillin and 100 μg/mL (final concentration) streptomycin.
The ARPE-19 cells were seeded at 10000 cells/well in a 96-well plate. The amount of the medium was 100 μL. Approximately 6 hours later, the medium was replaced with a medium containing terpenoid derivative B of the present invention obtained in Example 1 or CDDO-Me. After culture for approximately 16 hours, the number of live ARPE-19 cells was measured (Cell Counting Kit-8 (catalog No. CK01) manufactured by Dojindo Laboratories was used). Then, the medium was replaced with medium containing 300 μM t-BHP (manufactured by Sigma-Aldrich Corp., catalog No. 46665) and further containing terpenoid derivative B of the present invention obtained in Example 1 or CDDO-Me. Approximately 6 hours after the addition of t-BHP, the number of live ARPE-19 cells was measured.
The number of live cells in medium containing neither t-BHP nor the test compound was defined as 100%. The number of live cells in medium containing 300 μM t-BHP and each concentration of the test compound was indicated by percentage. Each group consisted of 3 wells and was indicated as a mean and standard deviation.

[2] = tested on: ARPE-19 cells; experiment: Cytotoxicity, LDH-Cytotoxic Test in ARPE-19 cells; assay type: cell-based, human; conditions: 10 μM, approx. 16 hours, 3 wells
Method: as §1, with “cells (human retinal pigment epithelium cell line, ATCC, catalog No. CRL-2302)” for “cells”, “C.). A” for “C.) using a”, “FBS was used.” for “FBS.”, “μg/[…]” for “μg/mL”
The ARPE-19 cells were seeded at 5000 cells/well in a 96-well plate. The amount of the medium was 50 μL. Approximately 3 hours later, 50 μL of a medium containing CDDO-Me or each of terpenoid derivatives A to H was added thereto, followed by culture for approximately 16 hours. Then, cytotoxicity was evaluated using LDH-Cytotoxic Test (Wako Pure Chemical Industries, Ltd., catalog No. 299-50601). The evaluation method followed the attached document. Each group consisted of 3 wells and was indicated as cytotoxicity at the concentration of 10 μM. The means thereof were 43% for CDDO-Me, 2% for terpenoid derivative A, 2% for terpenoid derivative B, 2% for terpenoid derivative C, 1% for terpenoid derivative D, 2% for terpenoid derivative E, 3% for terpenoid derivative F, 3% for terpenoid derivative G, and 1% for terpenoid derivative H. Terpenoid derivatives A to H were low in cytotoxicity as compared with CDDO-Me.

[3] = tested on: oxygen-induced retinopathy in rat; experiment: Inhibitory effect on oxygen-induced retinopathy in rat (in vivo); design: species or system SD rat; conditions: for Score of pathological condition of retina: rat newborns, oxygen load present, seven times, mean ± SD
Method: SD rat newborns (Charles River Laboratories Japan, Inc., pregnant rats were received) were used in the experiment. From the ages of 1 day to 12 days, the newborns were raised under approximately 80% oxygen with the mother rats. The newborns were raised under the atmosphere from the age of 13 days. A suspension of the terpenoid derivative B was prepared using a 0.5 w/v % methylcellulose solution 400 cP (Wako Pure Chemical Industries, Ltd., catalog No. 133-14255) as a solvent. The suspension was orally administered once a day from the ages of 11 days to 17 days, a total of seven times, at a dose of 0.03, 0.1, or 0.3 mpk with administration volume of 10 mL/kg. On the next day of the final […], the newborn rats were euthanized, and the retina was sampled. The pathological condition of the retina was scored according to the literature (Invest Ophthalmol Vis Sci 2000; 41: 887-). Each group consisted of 14 to 30 eyes and was indicated as a mean and standard deviation.

Row | Compound | suppression of the decrease in the number of live cells caused by t-BHP (in words) [1] | Number of live cells (percentage) ([1]; 0.03 nM test compound) [%] | Number of live cells (percentage) ([1]; 0.3 nM test compound) [%] | Number of live cells (percentage) ([1]; 3 nM test compound) [%] | Number of live cells (percentage) ([1]; 30 nM test compound) [%] | Number of live cells (percentage) ([1]; 300 nM test compound) [%] | cytotoxicity (LDH-Cytotoxic Test), mean [2] [%] | Score of pathological condition of retina ([3]; 0.03 mg/kg oral once a day) | Score of pathological condition of retina ([3]; 0.1 mg/kg oral once a day) | Score of pathological condition of retina ([3]; 0.3 mg/kg oral once a day) | effect on score of the pathological condition of the retina (in words) ([3]; rat oxygen-induced retinopathy, oral 0.03 to 0.3 mg/kg)
1 | COC(=O)[C@]12CCC(C)(C)C[C@H]1[C@H]1C(=O)C=C3[C@@]4(C)C=C(C#N)C(=O)C(C)(C)[C@@H]4CC[C@@]3(C)[C@]1(C)CC2 [CDDO-Me, methyl 2-cyano-3,12-dioxooleana-1,9-dien-28-oate, reference compound] | did not completely suppress the decrease in the number of live cells | 61.8 ± 2.0 | 56.7 ± 1.2 | 74.3 ± 1.4 | 84.7 ± 4.8 | 76.1 ± 2.8 | 43 | – | – | – | –
2 | COC(=O)[C@@]12CC[C@]3(C)[C@H](C(=O)C=C4[C@@]5(C)[C@H]6O[C@@]6(C#N)C(=O)C(C)(C)[C@@H]5CC[C@]43C)[C@@H]1CC(C)(C)[C@@H](O)C2 [terpenoid derivative B] | – | 90.3 ± 3.9 | 99.0 ± 10.0 | 119.7 ± 5.7 | 114.3 ± 9.5 | 111.2 ± 3.8 | 2 | 3.93 ± 0.79 | 3.54 ± 0.48 | 2.57 ± 0.35 | suppressed the score of the pathological condition of the retina in a dose-dependent manner
